# Results taken from patent publication US10596296B2, “Heparan sulphates” (Agency for Science, Technology and Research, priority 2014, dated 2020).
# Assays:
# TGF-β1 [1] = molecular target: T1, TGF-β1 (Homo sapiens, UniProt P01137); assay: GAG-binding plate assay; details: wells coated with 5 μg/ml GAG; TGF-β1 100, 200 or 400 ng/ml
# T1 construct: full length mature TGF-β1 is 112 amino acids in length
# Method: GAGs are immobilized in each well and then challenged with TGF-β1 according to the manufacturer's instructions. Briefly, triplicate wells are first pre-coated with 5 μg/ml of heparin, HS^PM, HS16^+ve or HS16^−ve in standard assay buffer (SAB: 100 mM NaCl, 50 mM sodium acetate, 0.2% v/v Tween 20, pH 7.2), and then incubated overnight at room temperature. The plates are next washed carefully three times with SAB, blocked with 250 μl of blocking solution (0.4% w/v fish skin gelatine, Sigma-Aldrich, in SAB) and incubated for 1 h at 37° C. TGF-β1 was then dissolved in blocking solution at a concentration of 100, 200, or 400 ng/ml. The plates are washed three times with SAB and each dilution of protein (200 μl) is dispensed into triplicate wells and incubated for 2 h at 37° C., rinsed with SAB and 200 μl of 750 ng/ml monoclonal mouse anti-TGF-β1 antibody (MAB2401, R&D Systems) added in blocking solution. Plates are then incubated for 1 h at 37° C., washed with SAB, and 200 μl of 1 μg/ml polyclonal goat anti-mouse biotinylated antibody (ab6788, Abcam) added in blocking solution. Again, plates are incubated for 1 h at 37° C., washed with SAB, and 200 μl of 220 ng/ml ExtrAvidin AP (Sigma-Aldrich) is added in blocking solution, incubated for 30 min at 37° C., and then rinsed with SAB. Finally, 200 μl of development reagent (SigmaFAST p-Nitrophenyl phosphate, Sigma-Aldrich) is added, incubated at 37° C. for 40 min and read at 405 nm within 1 h.
# To determine the ability of TGF-β1 to bind to heparin, we utilized positively-charged GAG-binding plates (Iduron) as a capture substrate. GAGs were immobilized in each well and then challenged with TGF-β1 according to the manufacturer's instructions. Briefly, triplicate wells were first pre-coated with 5 μg/ml of full length heparin, size-fractionated heparin (dp14, 16, 18, 20, 22 and 24) or selectively […] heparin prepared in standard assay buffer (SAB: 100 mM NaCl, 50 mM sodium acetate, 0.2% v/v Tween 20, pH 7.2), and then incubated overnight at room temperature. The plates were next washed carefully three times with SAB, blocked with 250 μl of blocking solution (0.4% w/v fish skin gelatine, Sigma-Aldrich, in SAB) and incubated for 1 h at 37° C. TGF-β1 was then dissolved in blocking solution at a concentration of 100, 200, or 400 ng/ml. The plates were washed three times with SAB and each dilution of protein (200 μl) was dispensed into triplicate wells and incubated for 2 h at 37° C., rinsed with SAB and 200 μl of 750 ng/ml monoclonal mouse anti-TGF-β1 antibody (MAB2401, R&D Systems) added in blocking solution. […] Finally, 200 μl of development reagent (SigmaFAST p-Nitrophenyl phosphate, Sigma-Aldrich) was added, incubated at 37° C. for 40 min and read at 405 nm within 1 h.
# [2] = test system: TGF-β1 signaling (pSMAD2, pSMAD3) in hMSCs; assay: Western blotting of pSMAD2/pSMAD3 in hMSCs treated with TGF-β1 and GAG; type: cell-based, human
# Method: Primary hMSCs (Lonza) were isolated from the bone marrow mononuclear cells of a young healthy adult human donor by plastic adherence and characterized as previously described (30,31). The adherent cells were maintained in a basal media consisting of DMEM-low glucose (1000 mg/l, DMEM-LG) supplemented with 10% fetal calf serum, 100 U/ml penicillin, 100 μg/ml streptomycin and 2 mM L-glutamine, and cultured under standard conditions at 37° C. and 5% CO2 in a humidified atmosphere. Media replacement was every three days. Cells were detached with 0.125% trypsin/Versene (pH 7.0) upon reaching 75-80% confluence, and re-plated at a density of 3,000 cells/cm^2 under the same culture conditions. All experiments were carried out with cells at passage 5.
# Human MSCs were cultured in 6-well plates in basal media for 24 h at a density of 10,000 cells/cm^2. TGF-β1 treatments were then prepared at either 1 ng/ml or 5 ng/ml alone or in the presence of either 10 μg/ml or 40 μg/ml of full length heparin, or 1 ng/ml of TGF-β1 with 10 μg/ml size-fractionated or selectively desulfated heparin, HS^PM, HS16+ or HS16−, and incubated at room temperature for 10 min before being added to the cells. Latent TGF-β1 (LTGF-β1) treatments were similarly prepared at 3.3 ng/ml alone or with 10 μg/ml of the various GAGs described above. For inhibitor studies, the cells were pre-treated for 30 min with 10 μM SB431542 (Sigma-Aldrich) or DMSO before treatment with TGF-β1. […] Samples were then immunoblotted with antibodies against SMAD2/3 (#3102, Cell Signaling), phosphorylated SMAD2 (pSMAD2, #3108, Cell Signaling), phosphorylated SMAD3 (pSMAD3, #9520, Cell Signaling) and actin (MAB1501R, Millipore). Densitometry was carried out using Quantity One software (version 4.6.6, Bio-Rad).
# TGF-β1 [3] = molecular target: T1, TGF-β1; assay: Differential scanning fluorimetry (DSF) of TGF-β1; type: binding; details: TGF-β1 2.5 μM, DTT 10 mM, heparin 25 μM
# Method: DSF was performed on a 7500 Fast Real PCR System (software version 1.4, Applied Biosystems), as described previously (34,35). TGF-β1 (2.5 μM) was tested with or without heparin (25 μM). To facilitate the melting of TGF-β1, 10 mM of dithiothreitol (DTT) was added to the reaction mix. Experiments were run as previously described (34). First derivatives of the melting curves were calculated using Origin 7 (OriginLab Corp.) to determine the melting temperature of TGF-β1 under the various conditions.
# [4] = 6 h post-treatment, heparin and TGF-β1
# T1 sequence (P01137 279-390 limits assumed): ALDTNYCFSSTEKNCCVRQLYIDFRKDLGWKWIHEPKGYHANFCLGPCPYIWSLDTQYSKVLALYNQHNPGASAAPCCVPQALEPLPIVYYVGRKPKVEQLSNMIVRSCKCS
substance,measurement,setting,value
heparin,TGF-β1 binding to immobilized GAG,TGF-β1 [1],bound in a dose-dependent manner
same,pSMAD2 and pSMAD3 levels,"[2]; 1 h post treatment, with TGF-β1",saturated
same,pSMAD2 level relative to equivalent dose of TGF-β1 without heparin,[2]; [4],~1.6 fold
same,pSMAD3 level relative to equivalent dose of TGF-β1 without heparin,[2]; [4],~1.35 fold
same,pSMAD levels relative to TGF-β1 alone,"[2]; 24 h, heparin and TGF-β1",continued to be greater
same,pSMAD2 and pSMAD3 signal,"[2]; TGF-β1 1 ng/mL with 40 μg/mL heparin, 6 h",unable to elicit the same effect
same,pSMAD2 and pSMAD3 levels,"[2]; TGF-β1 1 ng/ml pre-incubated with 10 μg/ml GAG, 6 h",maintained a stronger pSMAD2 and pSMAD3 signal
same,pSMAD signal,"[2]; TGF-β1 5 ng/mL with 10 or 40 μg/mL heparin, 6 h",neither dose of heparin was able enhance the pSMAD signal beyond that obtained from the growth factor alone
same,levels of pSMAD2 and pSMAD3,"[2]; heparin alone, no TGF-β1",No discernible levels
same,melting temperature of TGF-β1 upon addition of heparin,TGF-β1 [3],47.5 °C
